Values of other authors in PubChem BioAssay AID1259409 (Chemical Carcinogenesis Research Information System (CCRIS), 2018).

System: rodent chemically induced tumor inhibition, incidence and multiplicity
Assay: CCRIS tumor inhibitor studies
Conditions: Promoter: NONE USED

O=C1O[C@H]([C@@H](O)CO)C(O)=C1O
tumour outcome (control, treated, inhibition, significance) (Carcinogen: N-METHYL-N-NITROSOUREA, 684-93-5, Dose [Inhibitor]: 1% IN 20% FAT DIET DAILY STARTING 2 WK BEFORE START OF CARCINOGEN TREATMENT AND CONTINUING FOR DURATION OF STUDY (STUDY, Route [Inhibitor]: ORAL, Species: RAT, Strain/Sex: F344/FEMALE, Target Tissue: Type of Lesion: MAMMARY GLAND: FIBROADENOMA, Dose [Carcinogen]: 2 MG 2/WK FOR 2 WK): 25%, 38%, -52%, not significant
tumour outcome (control, treated, inhibition, significance) (Carcinogen: N-NITROSOMORPHOLINE, 59-89-2, Dose [Inhibitor]: 22.7 G/KG OF DIET 5 D/WK FOR 2 YR STARTING SIMULTANEOUSLY WITH CARCINOGEN TREATMENT AT 8 WK OF AGE AND CONTINUING FOR DU, Route [Inhibitor]: ORAL, Species: RAT, Strain/Sex: MRC/MALE, Target Tissue: Type of Lesion: FORESTOMACH: SQUAMOUS CELL PAPILLOMA, SQUAMOUS CELL CARCINOMA, Dose [Carcinogen]: 0.15 G/L DRINKING WATER 5 D/WK FOR 2 YR): 1/41 (2%), 4/47 (9%), -350%, not calculated
tumour outcome (control, treated, inhibition, significance) (Carcinogen: N-NITROSOMORPHOLINE, 59-89-2, Dose [Inhibitor]: 22.7 G/KG OF DIET 5 D/WK FOR 2 YR STARTING SIMULTANEOUSLY WITH CARCINOGEN TREATMENT AT 8 WK OF AGE AND CONTINUING FOR DU, Route [Inhibitor]: ORAL, Species: RAT, Strain/Sex: MRC/MALE, Target Tissue: Type of Lesion: LIVER: KUPFFER CELL SARCOMA, Dose [Carcinogen]: 0.15 G/L DRINKING WATER 5 D/WK FOR 2 YR): 28/41 (68%), 34/47 (72%), -6%, not calculated
tumour outcome (control, treated, inhibition, significance) (Carcinogen: N-NITROSOMORPHOLINE, 59-89-2, Dose [Inhibitor]: 22.7 G/KG OF DIET 5 D/WK FOR 2 YR STARTING SIMULTANEOUSLY WITH CARCINOGEN TREATMENT AT 8 WK OF AGE AND CONTINUING FOR DU, Route [Inhibitor]: ORAL, Species: RAT, Strain/Sex: MRC/MALE, Target Tissue: Type of Lesion: LIVER: LIVER CELL CARCINOMA, Dose [Carcinogen]: 0.15 G/L DRINKING WATER 5 D/WK FOR 2 YR): 17/41 (41%), 20/47 (43%), -5%, not calculated
tumour outcome (control, treated, inhibition, significance) (Carcinogen: TRANS-5-AMINO-3-[2-(5-NITRO-2-FURYL)VINYL]-1,2,4-OXADIAZOLE;SQL8506, 28754-68-9, Carcinogen: TRANS-5-AMINO-3-[2-(5-NITRO-2-FURYL)VINYL]-1,2,4-OXADIAZOLE;SQL8506, 28754-68-9, Dose [Inhibitor]: 2 G/KG 16 HR BEFORE THE 1ST CARCINOGEN DOSE FOLLOWED BY ADDITIONAL DOSES IMMEDIATELY BEFORE EACH DOSE OF CARCINOGEN (STU, Route [Inhibitor]: INTRAPERITONEAL, Species: MOUSE, Strain/Sex: CD-1/FEMALE, Target Tissue: Type of Lesion: HEMATOPOIETIC SYSTEM: MYELOID LEUKEMIA, Dose [Carcinogen]: 1 G/KG 2/D FOR 5 D EVERY 4 WK FOR 3 COURSES OF TREATMENT): 7/137 (5%), 3/45 (7%), -40%, not calculated
tumour outcome (control, treated, inhibition, significance) (Carcinogen: TRANS-5-AMINO-3-[2-(5-NITRO-2-FURYL)VINYL]-1,2,4-OXADIAZOLE;SQL8506, 28754-68-9, Carcinogen: TRANS-5-AMINO-3-[2-(5-NITRO-2-FURYL)VINYL]-1,2,4-OXADIAZOLE;SQL8506, 28754-68-9, Dose [Inhibitor]: 2 G/KG 16 HR BEFORE THE 1ST CARCINOGEN DOSE FOLLOWED BY ADDITIONAL DOSES IMMEDIATELY BEFORE EACH DOSE OF CARCINOGEN (STU, Route [Inhibitor]: INTRAPERITONEAL, Species: MOUSE, Strain/Sex: CD-1/FEMALE, Target Tissue: Type of Lesion: LYMPHOID TISSUE: NONTHYMIC LYMPHOMA, Dose [Carcinogen]: 1 G/KG 2/D FOR 5 D EVERY 4 WK FOR 3 COURSES OF TREATMENT): 8/137 (6%), 2/45 (4%), 33%, not calculated
tumour outcome (control, treated, inhibition, significance) (Carcinogen: TRANS-5-AMINO-3-[2-(5-NITRO-2-FURYL)VINYL]-1,2,4-OXADIAZOLE;SQL8506, 28754-68-9, Carcinogen: TRANS-5-AMINO-3-[2-(5-NITRO-2-FURYL)VINYL]-1,2,4-OXADIAZOLE;SQL8506, 28754-68-9, Dose [Inhibitor]: 2 G/KG 16 HR BEFORE THE 1ST CARCINOGEN DOSE FOLLOWED BY ADDITIONAL DOSES IMMEDIATELY BEFORE EACH DOSE OF CARCINOGEN (STU, Route [Inhibitor]: INTRAPERITONEAL, Species: MOUSE, Strain/Sex: CD-1/FEMALE, Target Tissue: Type of Lesion: LYMPHOID TISSUE: THYMIC LYMPHOMA, Dose [Carcinogen]: 1 G/KG 2/D FOR 5 D EVERY 4 WK FOR 3 COURSES OF TREATMENT): 22/137 (16%), 7/45 (16%), 0%, not calculated
tumour outcome (control, treated, inhibition, significance) (Carcinogen: TRANS-5-AMINO-3-[2-(5-NITRO-2-FURYL)VINYL]-1,2,4-OXADIAZOLE;SQL8506, 28754-68-9, Carcinogen: TRANS-5-AMINO-3-[2-(5-NITRO-2-FURYL)VINYL]-1,2,4-OXADIAZOLE;SQL8506, 28754-68-9, Dose [Inhibitor]: 2 G/KG 16 HR BEFORE THE 1ST CARCINOGEN DOSE FOLLOWED BY ADDITIONAL DOSES IMMEDIATELY BEFORE EACH DOSE OF CARCINOGEN (STU, Route [Inhibitor]: INTRAPERITONEAL, Species: MOUSE, Strain/Sex: CD-1/FEMALE, Target Tissue: Type of Lesion: STOMACH: SQUAMOUS CARCINOMA, Dose [Carcinogen]: 1 G/KG 2/D FOR 5 D EVERY 4 WK FOR 3 COURSES OF TREATMENT): 60/137 (44%), 14/45 (31%), 30%, not calculated
tumour outcome (control, treated, inhibition, significance) (Carcinogen: UV IRRADIATION, Dose [Inhibitor]: 0.3% IN DIET BEGINNING 10 D PRIOR TO CARCINOGEN DOSE AND CONTINUING FOR DURATION OF STUDY (STUDY DURATION: 27 WK), Route [Inhibitor]: ORAL, Species: MOUSE, Strain/Sex: SKH/HRL/FEMALE, Target Tissue: Type of Lesion: SKIN: CARCINOMA OR PAPILLOMA, Dose [Carcinogen]: 1.13 J/CM2/D INCREASED EVERY 2 WK TO A FINAL VALUE OF 1.97 J/CM2/D 5 D/WK FOR 15 WK (TOTAL EXPOSURE: 135 J/CM2)): 23/44 (52%), 24/39 (62%), -19%, not calculated
tumour outcome (control, treated, inhibition, significance) (Carcinogen: UV IRRADIATION, Dose [Inhibitor]: 5% IN DIET BEGINNING 10 D PRIOR TO CARCINOGEN DOSE AND CONTINUING FOR DURATION OF STUDY (STUDY DURATION: 27 WK), Route [Inhibitor]: ORAL, Species: MOUSE, Strain/Sex: SKH/HRL/FEMALE, Target Tissue: Type of Lesion: SKIN: PAPILLOMA OR CARCINOMA, Dose [Carcinogen]: 1.13 J/CM2/D INCREASED EVERY 2 WK TO A FINAL VALUE OF 1.97 J/CM2/D 5 D/WK FOR 15 WK (TOTAL EXPOSURE: 135 J/CM2)): 23/44 (52%), 15/38 (39%), 25%, not calculated
tumour outcome (control, treated, inhibition, significance) (Carcinogen: UV IRRADIATION, Dose [Inhibitor]: 10% IN DIET BEGINNING 10 D PRIOR TO CARCINOGEN DOSE AND CONTINUING FOR DURATION OF STUDY (STUDY DURATION: 27 WK), Route [Inhibitor]: ORAL, Species: MOUSE, Strain/Sex: SKH/HRL/FEMALE, Target Tissue: Type of Lesion: SKIN: PAPILLOMA OR CARCINOMA, Dose [Carcinogen]: 1.13 J/CM2/D INCREASED EVERY 2 WK TO A FINAL VALUE OF 1.97 J/CM2/D 5 D/WK FOR 15 WK (TOTAL EXPOSURE: 135 J/CM2)): 23/44 (52%), 14/40 (35%), 33%, not calculated
outcome (Dose [Inhibitor]: 22.7 G/KG OF DIET 5 D/WK FOR 2 YR STARTING SIMULTANEOUSLY WITH CARCINOGEN TREATMENT AT 8 WK OF AGE AND CONTINUING FOR DU, Route [Inhibitor]: ORAL, Species: RAT, Strain/Sex: MRC/MALE, Target Tissue: Type of Lesion: FORESTOMACH: SQUAMOUS CELL PAPILLOMA, SQUAMOUS CELL CARCINOMA): 0/37 (0%), 21/39 (54%), not calculated
tumour outcome (control, treated, inhibition, significance) (Dose [Inhibitor]: 22.7 G/KG OF DIET 5 D/WK FOR 2 YR STARTING SIMULTANEOUSLY WITH CARCINOGEN TREATMENT AT 8 WK OF AGE AND CONTINUING FOR DU, Route [Inhibitor]: ORAL, Species: RAT, Strain/Sex: MRC/MALE, Target Tissue: Type of Lesion: LIVER: KUPFFER CELL SARCOMA): 13/37 (35%), 7/39 (18%), 49%, not significant
tumour outcome (control, treated, inhibition, significance) (Dose [Inhibitor]: 22.7 G/KG OF DIET 5 D/WK FOR 2 YR STARTING SIMULTANEOUSLY WITH CARCINOGEN TREATMENT AT 8 WK OF AGE AND CONTINUING FOR DU, Route [Inhibitor]: ORAL, Species: RAT, Strain/Sex: MRC/MALE, Target Tissue: Type of Lesion: LIVER: LIVER CELL CARCINOMA): 12/37 (32%), 10/39 (26%), 19%, not significant
